Laboratory results from patent publication US5084463A, “N-quinolinyl alkyl-substituted 1-aryloxy-2-propanolamine and propylamine derivatives possessing class III antiarrhythmic activity” (American Home Products Corporation, priority 1990, dated 1992).

Columns and labels:
[1] = system: Purkinje Fiber; assay: Cardiac electrophysiology in vitro: action potential parameters of dog Purkinje fibers; type: cell-based; settings: 3 μM, BCL = 300
Description: Bundles of free-running Purkinje fibers with attached myocardium obtained from either ventricle of adult dog heart were pinned without stretching to the bottom of a 10 mL tissue chamber and continuously superfused with oxygenated Tyrode's solution at a flow rate of 5 mL/minute. The composition of the Tyrode's solution was (mM): NaCl, 138; KCl 4; CaCl2, 2; MgCl2, 0.5; NaHCO3, 24; dextrose, 5.5. The solution was aerated with 95% O2 --5% CO2 at 37° C. Bath temperature was maintained at 37°±0.5° C. by circulating the pre-warmed superfusate through a thermostatically controlled water bath immediately prior to entering the tissue chamber. […] The first derivative of the action potential upstroke (Vmax) was obtained using an analog differentiator circuit, coupled to a peak-hold circuit that retained the recorded value of Vmax for 30 to 70-msec. […] Action potential (AP) parameters measured included: diastolic take-off potential (or activation voltage, V(act); AP overshoot (Vos); AP duration measured as the time taken to repolarize to -20 mV (APD-20), -60 mV (APD-60), and -80 mV (APD-80); and maximal upstroke velocity (Vmax). An increase in APD-60 that occurred without a significant change in Vmax was taken, by definition, to indicate Class III antiarrhythmic activity "in vitro".

[2] = system: Dog; assay: Ventricular fibrillation threshold in dog; type: in vivo, mongrel dog; settings: 5 mg/kg i.v.
Description: VENTRICULAR FIBRILLATION THRESHOLD
Mongrel dogs of both sexes weighing 12 to 18 kg were anesthetized with sodium pentobarbital (35 mg/kg i.v. supplemented with 5 mg/kg/h) and artificially ventilated with room air (minute volume: 200 mL/kg).
A right thoracotomy was performed at the fifth intercostal space and the heart suspended in a pericardial cradle. Bipolar electrodes for stimulation were sutured to the free wall of the right atrium and to the right ventricle.
The dog heart was paced by a stimulus for driving a constant current isolation unit.
Ventricular fibrillation threshold (VFT) was determined during atrial pacing at […]. Trains of 4-msec duration square-wave pulses (50 Hz, 200-msec duration) were delivered to the right ventricle via the epicardial bipolar electrode (silver contacts 1 mm in diameter and 5 mm apart embedded in acrylic matrix). Trains of pulses were delivered every 12th paced beat and were timed to terminate with the end of the T wave of the ECG. Current intensity was increased progressively until ventricular fibrillation (VF) occurred. The lowest current intensity producing VF was defined as the ventricular fibrillation threshold (VFT). […] VFT was measured twice before drug administration to establish a stable pre-drug threshold. […]

[3] = dextro enantiomer; Taggart et al. 1985, McComb et al. 1985; cited from earlier work

CN(Cc1ccc2ccccc2n1)CC(O)COc1ccc([N+](=O)[O-])cc1.Cl.Cl (stereo not shown) [Example 3, 1-[Methyl(2-quinolinylmethyl)amino]-3-(4-nitrophenoxy)-2-propanol Dihydrochloride]
APD-60 [1]: did not pace

CN(Cc1ccc2ccccc2n1)CC(O)COc1ccc(NS(C)(=O)=O)cc1 (stereo not shown) [Example 4, N-[4-[2-Hydroxy-3-[methyl(2-quinolinylmethyl)amino]propoxy]phenyl]methanesulfonamide]
Ventricular fibrillation threshold (current threshold necessary to induce fibrillation) ([2]; n = 6, x + S.E., pre-drug vehicle 8 + 2): 25 + 7 mA | animals defibrillated spontaneously ([2]; of 6 animals): 2 animals

CC(C)NCC(O)c1ccc(NS(C)(=O)=O)cc1 (stereo not shown) [Sotalol, 4-(2-isopropylamino-1-hydroxyethyl)-methanesulfonamide]
selective Class III antiarrhythmic activity [3]: selective Class III antiarrhythmic activity
